Test results reported in patent US8039639B2, “Kinase inhibitors and methods of use thereof” (Array BioPharma Inc., priority 2006, dated 2011).
pIC50: −log10 of the molar value. Entries after “also recorded” stand apart in the source; their conditions may differ. Where two headings read alike, the source gives them in different places.

Columns and labels:
[1] = Solubility determination; assay type: physicochemical
[2] = biological target: Fyn (Homo sapiens, UniProt P06241); experiment: protein kinase IC50 determination (ATP at Km); assay type: biochemical; conditions: ATP concentration at Km
[3] = system: TNF-α production in whole blood; experiment: TNF-α production in LPS-treated whole blood (ELISA); assay type: cell-based; conditions: whole blood treated with LPS, read-out: apparent IC50, inhibition of TNF-α production
[4] = biological target: CYP2D6 (Homo sapiens, UniProt P10635); experiment: CYP inhibition assay (fluorescent probe, recombinant protein); assay type: in vitro ADME; conditions: n=1
[5] = Pharmacokinetics in mouse; assay type: in vivo, female Balb/c mice
Procedure: (§1) Non-compartmental (model independent) methods were used to analyze the plasma concentration time-curves derived from all species as described below. Clearance (Cl), calculated percent extraction ratios (ER %), volume of distribution (Vz), time to […] (t1/2) and exposure (AUC, area under the curve) values are provided below for mouse, rat, and monkey, respectively.
1. […] Blood samples were obtained at 15 and 30 minutes, and 1, 2, 4, 8 and 24 hours after PO dosing, and at 15 and 30 minutes, and 1, 2, 4, and 8 hours for IV administration.

[6] = biological target: Abl (Homo sapiens, UniProt P00519); experiment: protein kinase IC50 determination (ATP at Km); assay type: biochemical; conditions: ATP concentration at Km
[7] = biological target: Tie2 (Homo sapiens, UniProt Q02763); experiment: protein kinase IC50 determination (ATP at Km); assay type: biochemical; conditions: ATP concentration at Km
[8] = biological target: FGFR1 (Homo sapiens, UniProt P11362); experiment: protein kinase IC50 determination (ATP at Km); assay type: biochemical; conditions: ATP concentration at Km
[9] = Pharmacokinetics in monkey; assay type: in vivo, male Cynomologus monkeys
Excerpt: as §1
3. […] Blood was sampled at the same time points as listed for the Mouse PK study.

[10] = system: RPMI 8226; experiment: RPMI 8226 cell viability (CellTiter Blue); assay type: cell-based; conditions: RPMI 8226, 72 hours
Procedure: Cell viability was then measured using CellTiter Blue (Promega) to determine IC50 values for each compound (Table 8). […] MG-132 produced an IC50 that was within historical ranges of in-house testing (Table 8).

[11] = biological target: T1, CYP2C19 (Homo sapiens, UniProt P33261); experiment: CYP inhibition assay (LC/MS, pooled human liver microsomes); assay type: in vitro ADME; conditions: n=1, read-out: CYPC19 IC50
T1 construct: using pooled human liver microsomes (n=1); from tissue; host or cells: pooled human liver microsomes

[12] = system: micronucleus; experiment: Micronucleus assay (in vitro); assay type: cell-based
Procedure: hERG assay was performed using a standard patch clamp protocol. AMES assay (bacterial reverse mutation assay) was performed according to protocol. […] In vitro and in vivo micronucleus assays were performed according to protocol.

[13] = biological target: Lyn (Homo sapiens, UniProt P07948); experiment: protein kinase IC50 determination (ATP at Km); assay type: biochemical; conditions: ATP concentration at Km
[14] = biological target: Hck (Homo sapiens, UniProt P08631); experiment: protein kinase IC50 determination (ATP at Km); assay type: biochemical; conditions: ATP concentration at Km
[15] = system: Collagen Induced Arthritis (CIA); experiment: Rat model of collagen induced arthritis (CIA); assay type: in vivo, Female Lewis rats; conditions: BID×7, dosed as prodrug Compound 74; for ED50: PO
Procedure: Female Lewis rats (200 g); n=8 per treatment group were injected with type II collagen/Freund's incomplete adjuvant (300 μL injection of 0.6 mg collagen, dorsal surface Day 0 and Day 6). […] ENBREL® served as a positive control. Compounds were administered on days 11-18. Ankle diameter was measured at day 11 and every day thereafter (FIG. 70). At study end paw weight and microscopic histology were determined. Both hind paws and knees were removed, hind paws weighed and then placed, with knees, in formalin. Following 1-2 days in fixative and 4-5 days in decalcifier, ankle joints and knees were processed, embedded, sectioned and stained with toluidine blue. Ankles and knees were given scores of 0-5 for inflammation, pannus formation and bone resorption.

[16] = biological target: Arg (Homo sapiens, UniProt P42684); experiment: protein kinase IC50 determination (ATP at Km); assay type: biochemical; conditions: ATP concentration at Km
[17] = Pharmacokinetics in rat; assay type: in vivo, male Sprague-Dawley rats
Excerpt: as §1
2. […] Blood was sampled at the same time points as listed for the Mouse PK study.

[18] = biological target: T2, BCR-Abl (Homo sapiens, UniProt P00519); experiment: K562 immunoblot for p-Abl, pSTAT5, pCrkL; assay type: cell-based; conditions: K562 cells, 2 hours, 37-5000 nM
T2 construct: BCR (N-terminal part, natural fusion partner of the Philadelphia-chromosome chimera); endogenous in cells; host or cells: K562; the other entry of the earlier key: BCR (P11274, Breakpoint cluster region protein)

[19] = 14-day tolerability study in mice; assay type: in vivo; conditions: 14 days, dosed as Compound 74
Procedure: Weight loss was assessed throughout study. Blood was removed on the final day for clinical chemistries (albumin, alkaline phosphatase, ALT, Amylase, BUN, calcium, cholesterol, creatinine, glucose, phosphate, total bilirubin, TP, Globulin).

[20] = biological target: T3, VEGFR2 (Homo sapiens, UniProt P35968); experiment: VEGFR2 autophosphorylation (Tyr1175) in VEGF-stimulated HUVECs; assay type: cell-based; conditions: 20 ng/mL VEGF for 5 minutes, read-out: IC50, VEGFR2 autophosphorylation at Tyrosine residue 1175
T3 construct: endogenous in cells; host or cells: HUVEC
Procedure: Lysates of the various treatments were prepared and immunoblotted with antibodies specific for VEGFR2 phosphorylated at Tyr1175. […] Phospho-VEGFR2 signal was normalized to GAPDH as a loading control.

[21] = female, Balb/c, plasma, IV: 1 mg/kg
[22] = male, Sprague-Dawley, plasma, IV: 1 mg/kg
[23] = CD-1 mice, 10, 30 and 100 mg/kg BID, all dose groups

Sequence of Hck (P08631 whole entry, species assumed): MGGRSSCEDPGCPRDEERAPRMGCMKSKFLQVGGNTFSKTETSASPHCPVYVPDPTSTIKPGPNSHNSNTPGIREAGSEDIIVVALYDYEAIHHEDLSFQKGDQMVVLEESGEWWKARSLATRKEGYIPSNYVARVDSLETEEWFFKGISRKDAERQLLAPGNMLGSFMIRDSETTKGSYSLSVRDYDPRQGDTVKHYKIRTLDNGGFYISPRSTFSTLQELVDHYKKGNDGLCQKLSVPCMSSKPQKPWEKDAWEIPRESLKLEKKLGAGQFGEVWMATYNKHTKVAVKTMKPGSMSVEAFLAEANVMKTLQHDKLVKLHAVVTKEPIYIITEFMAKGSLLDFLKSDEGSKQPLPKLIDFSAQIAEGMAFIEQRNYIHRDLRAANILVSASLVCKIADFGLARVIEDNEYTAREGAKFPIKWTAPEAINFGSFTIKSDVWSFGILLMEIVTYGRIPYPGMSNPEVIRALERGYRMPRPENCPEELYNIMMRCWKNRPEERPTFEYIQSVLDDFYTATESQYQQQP
Sequence of Arg (P42684 whole entry): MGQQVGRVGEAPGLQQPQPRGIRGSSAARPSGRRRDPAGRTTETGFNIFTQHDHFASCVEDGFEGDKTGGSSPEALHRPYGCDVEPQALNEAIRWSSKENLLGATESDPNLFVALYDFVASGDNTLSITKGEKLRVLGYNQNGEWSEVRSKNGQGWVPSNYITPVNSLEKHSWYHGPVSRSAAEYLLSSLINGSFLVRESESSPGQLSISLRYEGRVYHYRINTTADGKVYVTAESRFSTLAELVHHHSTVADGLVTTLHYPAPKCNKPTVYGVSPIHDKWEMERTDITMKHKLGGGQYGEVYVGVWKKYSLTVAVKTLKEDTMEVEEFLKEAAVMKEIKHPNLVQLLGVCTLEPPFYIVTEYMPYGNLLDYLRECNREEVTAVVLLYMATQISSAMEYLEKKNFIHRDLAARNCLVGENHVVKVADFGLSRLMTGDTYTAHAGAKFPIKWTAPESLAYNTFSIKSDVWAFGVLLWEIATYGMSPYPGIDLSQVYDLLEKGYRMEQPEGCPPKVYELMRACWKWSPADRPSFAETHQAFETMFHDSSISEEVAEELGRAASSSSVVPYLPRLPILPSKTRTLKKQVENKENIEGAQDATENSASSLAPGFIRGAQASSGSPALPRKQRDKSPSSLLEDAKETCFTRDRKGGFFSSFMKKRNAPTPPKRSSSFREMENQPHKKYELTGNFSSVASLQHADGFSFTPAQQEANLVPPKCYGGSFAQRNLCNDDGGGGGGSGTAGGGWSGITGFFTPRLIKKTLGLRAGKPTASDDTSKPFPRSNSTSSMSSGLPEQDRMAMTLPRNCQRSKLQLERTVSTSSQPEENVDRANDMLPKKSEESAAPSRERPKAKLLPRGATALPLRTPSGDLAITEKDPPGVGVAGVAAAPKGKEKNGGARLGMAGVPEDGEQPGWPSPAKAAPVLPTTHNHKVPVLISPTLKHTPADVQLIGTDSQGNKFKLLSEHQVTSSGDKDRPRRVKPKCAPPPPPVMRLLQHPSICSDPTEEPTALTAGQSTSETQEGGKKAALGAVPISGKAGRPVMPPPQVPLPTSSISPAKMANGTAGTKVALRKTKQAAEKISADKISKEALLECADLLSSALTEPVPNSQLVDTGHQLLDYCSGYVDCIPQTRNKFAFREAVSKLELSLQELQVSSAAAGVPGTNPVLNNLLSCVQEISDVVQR
Sequence of FGFR1 (P11362 22-822, species assumed): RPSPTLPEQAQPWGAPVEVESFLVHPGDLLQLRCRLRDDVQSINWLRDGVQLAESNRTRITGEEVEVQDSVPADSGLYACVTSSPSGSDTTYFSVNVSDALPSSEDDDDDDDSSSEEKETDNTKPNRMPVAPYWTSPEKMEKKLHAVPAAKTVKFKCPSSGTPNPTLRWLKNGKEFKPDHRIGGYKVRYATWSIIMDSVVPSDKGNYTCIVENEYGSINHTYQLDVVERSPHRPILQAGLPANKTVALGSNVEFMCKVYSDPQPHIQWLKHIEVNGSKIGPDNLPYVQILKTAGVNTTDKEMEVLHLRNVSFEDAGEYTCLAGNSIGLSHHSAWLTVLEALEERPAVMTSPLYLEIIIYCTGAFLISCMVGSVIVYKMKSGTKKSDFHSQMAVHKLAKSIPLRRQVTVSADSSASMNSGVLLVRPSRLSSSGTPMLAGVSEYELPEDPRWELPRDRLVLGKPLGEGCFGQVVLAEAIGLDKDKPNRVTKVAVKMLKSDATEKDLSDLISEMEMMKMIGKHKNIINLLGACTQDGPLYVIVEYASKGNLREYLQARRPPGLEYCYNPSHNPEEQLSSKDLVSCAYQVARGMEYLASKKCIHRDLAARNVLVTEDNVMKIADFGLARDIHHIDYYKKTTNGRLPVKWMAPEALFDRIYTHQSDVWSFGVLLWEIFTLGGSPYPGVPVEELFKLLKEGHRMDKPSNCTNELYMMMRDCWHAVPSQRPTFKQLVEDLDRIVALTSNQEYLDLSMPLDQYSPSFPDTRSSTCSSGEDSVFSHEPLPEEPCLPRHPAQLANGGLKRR
T1 sequence (P33261 whole entry): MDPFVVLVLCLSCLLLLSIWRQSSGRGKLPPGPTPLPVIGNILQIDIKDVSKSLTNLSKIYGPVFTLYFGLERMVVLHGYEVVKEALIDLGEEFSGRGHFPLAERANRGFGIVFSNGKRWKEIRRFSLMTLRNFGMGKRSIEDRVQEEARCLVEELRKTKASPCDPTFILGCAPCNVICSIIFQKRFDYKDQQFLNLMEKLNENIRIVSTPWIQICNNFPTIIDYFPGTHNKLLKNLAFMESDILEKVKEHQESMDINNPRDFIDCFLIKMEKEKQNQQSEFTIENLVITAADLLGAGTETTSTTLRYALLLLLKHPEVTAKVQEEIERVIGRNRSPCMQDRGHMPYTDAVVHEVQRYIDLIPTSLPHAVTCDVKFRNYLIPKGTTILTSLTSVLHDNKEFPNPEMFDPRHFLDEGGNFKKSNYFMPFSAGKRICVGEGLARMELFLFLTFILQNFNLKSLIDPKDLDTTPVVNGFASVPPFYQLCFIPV
Sequence of Abl (P00519 whole entry, species assumed): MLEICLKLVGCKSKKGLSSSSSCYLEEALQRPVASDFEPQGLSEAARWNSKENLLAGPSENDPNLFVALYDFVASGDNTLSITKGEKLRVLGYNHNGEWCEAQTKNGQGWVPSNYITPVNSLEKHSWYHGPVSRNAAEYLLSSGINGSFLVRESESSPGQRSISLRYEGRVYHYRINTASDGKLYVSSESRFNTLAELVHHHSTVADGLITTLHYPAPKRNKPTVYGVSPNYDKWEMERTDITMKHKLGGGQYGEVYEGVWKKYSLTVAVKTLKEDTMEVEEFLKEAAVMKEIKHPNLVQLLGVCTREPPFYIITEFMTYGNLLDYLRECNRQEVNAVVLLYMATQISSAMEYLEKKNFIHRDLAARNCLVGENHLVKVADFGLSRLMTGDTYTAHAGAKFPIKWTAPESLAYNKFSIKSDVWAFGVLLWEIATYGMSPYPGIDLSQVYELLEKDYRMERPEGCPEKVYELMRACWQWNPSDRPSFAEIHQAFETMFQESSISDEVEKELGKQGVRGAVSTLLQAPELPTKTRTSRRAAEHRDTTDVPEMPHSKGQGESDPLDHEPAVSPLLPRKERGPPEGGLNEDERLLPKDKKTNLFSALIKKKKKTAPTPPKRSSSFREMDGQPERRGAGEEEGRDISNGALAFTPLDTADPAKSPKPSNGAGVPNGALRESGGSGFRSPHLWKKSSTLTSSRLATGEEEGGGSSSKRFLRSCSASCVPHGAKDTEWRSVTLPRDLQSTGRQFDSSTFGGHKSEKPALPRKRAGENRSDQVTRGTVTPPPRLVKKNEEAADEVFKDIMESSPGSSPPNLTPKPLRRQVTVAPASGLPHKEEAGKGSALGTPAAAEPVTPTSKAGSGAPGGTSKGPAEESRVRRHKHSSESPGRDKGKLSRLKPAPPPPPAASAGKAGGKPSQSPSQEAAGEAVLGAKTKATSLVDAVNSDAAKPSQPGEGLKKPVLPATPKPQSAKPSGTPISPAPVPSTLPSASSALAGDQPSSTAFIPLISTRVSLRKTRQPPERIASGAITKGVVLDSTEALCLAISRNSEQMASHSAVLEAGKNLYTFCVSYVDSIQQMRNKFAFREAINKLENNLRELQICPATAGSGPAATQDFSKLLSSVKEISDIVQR
Sequence of Fyn (P06241 whole entry, species assumed): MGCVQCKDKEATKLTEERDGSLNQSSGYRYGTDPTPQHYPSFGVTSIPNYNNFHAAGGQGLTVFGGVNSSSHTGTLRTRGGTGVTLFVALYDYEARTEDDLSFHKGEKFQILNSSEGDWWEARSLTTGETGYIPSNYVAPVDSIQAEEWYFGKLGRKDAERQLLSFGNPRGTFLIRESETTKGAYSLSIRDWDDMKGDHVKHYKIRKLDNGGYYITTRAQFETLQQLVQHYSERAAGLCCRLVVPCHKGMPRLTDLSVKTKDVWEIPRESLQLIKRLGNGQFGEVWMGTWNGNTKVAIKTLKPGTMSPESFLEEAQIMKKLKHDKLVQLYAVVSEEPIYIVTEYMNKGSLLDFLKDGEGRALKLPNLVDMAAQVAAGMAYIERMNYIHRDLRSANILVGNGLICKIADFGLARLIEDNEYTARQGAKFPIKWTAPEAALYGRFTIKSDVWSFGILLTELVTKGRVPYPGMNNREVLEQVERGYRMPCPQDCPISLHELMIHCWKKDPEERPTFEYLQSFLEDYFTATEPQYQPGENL

Q: Which solubility ([1]; aqueous buffer, pH 3.0) does the source give for `Cc1ccc(-n2nc(C(C)(C)C)cc2NC(=O)NCc2cc(F)ccc2Oc2ccc3c(cnn3CCO)c2)cc1` [Compound 72, 1-(3-tert-butyl-1-p-tolyl-1H-pyrazol-5-yl)-3-(5-fluoro-2-(1-(2-hydroxyethyl)-1H-indazol-5-yloxy)benzyl)urea] here?
A: < 5 µg/mL

Q: And the solubility ([1]; pH 7.4, aqueous buffer)?
A: < 5 µg/mL

Q: What about the pIC50 [2] of the same compound?
A: 7.39

Q: And the pIC50 [3]?
A: 7.52

Q: And the pIC50 [4]?
A: 5.52

Q: And the AUC ([5]; IV: 1 mg/kg)?
A: AUC = 6.6 μg-hr/kg

Q: And the ER ([5]; IV: 1 mg/kg)?
A: ER = 2.8%

Q: What about the AUC ([5]; Oral: 10 mg/kg) of the same compound?
A: AUC = 10.5 μg-hr/kg

Q: And the F ([5]; Oral: 10 mg/kg)?
A: F = 16%

Q: What about the clearance [5, 21] of the same compound?
A: 2.6 mL/min/kg

Q: What about the half-life [5, 21] of the same compound?
A: 3.9 h

Q: And the Vd ([5]; female, Balb/c, plasma, IV: 1 mg/kg, read-out: Vz)?
A: 0.085 L/kg

Q: And the Cmax ([5]; female, Balb/c, plasma, Oral: 10 mg/kg)?
A: 1800 ng/mL

Q: And the pIC50 [6]?
A: 8.40

Q: What about the pIC50 [7] of the same compound?
A: 9.00

Q: What about the pIC50 [8] of the same compound?
A: 7.55

Q: What about the AUC ([9]; IV: 1 mg/kg) of the same compound?
A: AUC = 4.1 μg-hr/kg

Q: What about the ER ([9]; IV: 1 mg/kg) of the same compound?
A: ER = 20%

Q: And the AUC ([9]; Oral: 10 mg/kg)?
A: AUC = 7.6 μg-hr/kg

Q: And the F ([9]; Oral: 10 mg/kg)?
A: F = 38%

Q: What about the clearance ([9]; male, plasma, IV: 1 mg/kg) of the same compound?
A: 8.8 mL/min/kg

Q: And the half-life ([9]; male, plasma, IV: 1 mg/kg)?
A: 4.6 h

Q: What about the Vd ([9]; male, plasma, IV: 1 mg/kg, read-out: Vz) of the same compound?
A: 3.2 L/kg

Q: And the Cmax ([9]; male, plasma, Oral: 10 mg/kg)?
A: 260 ng/mL

Q: What about the pIC50 ([10]; Homo sapiens, read-out: Proliferation IC50) of the same compound?
A: < 5.00

Q: What about the anti-proliferative effect ([10]; over the indicated concentration range) of the same compound?
A: not anti-proliferative

Q: And the pIC50 [11]?
A: 4.60

Q: And the “Micronucleus (in vitro)” value [12]?
A: Negative

Q: And the pIC50 [13]?
A: 7.60

Q: What about the pIC50 [14] of the same compound?
A: 7.59

Q: What about the “disease course by the end of the study” value ([15]; rat CIA, 10 mg/kg PO) of the same compound?
A: induced disease regression

Q: And the “parameters associated with the disease model” value ([15]; rat CIA, 0.3, 1, 3 or 10 mg/kg PO)?
A: dose-dependently improved all of the parameters

Q: And the ED50 ([15]; rat CIA, read-out: apparent ED50, ankle diameter)?
A: 1.5 mg/kg

Q: What about the ED50 ([15]; rat CIA, read-out: apparent ED50, histopathology) of the same compound?
A: 3 mg/kg

Q: And the pIC50 [16]?
A: 8.00

Q: And the AUC ([17]; IV: 1 mg/kg)?
A: AUC = 4.7 μg-hr/kg

Q: And the ER ([17]; IV: 1 mg/kg)?
A: ER = 4.6%

Q: And the AUC ([17]; Oral: 30 mg/kg)?
A: AUC = 35 μg-hr/kg

Q: What about the F ([17]; Oral: 30 mg/kg) of the same compound?
A: F = 15%

Q: What about the clearance [17, 22] of the same compound?
A: 3.2 mL/min/kg

Q: What about the half-life [17, 22] of the same compound?
A: 3.9 h

Q: What about the Vd ([17]; male, Sprague-Dawley, plasma, IV: 1 mg/kg, read-out: Vz) of the same compound?
A: 0.048 L/kg

Q: And the Cmax ([17]; male, Sprague-Dawley, plasma, Oral: 30 mg/kg)?
A: 4500 ng/mL

Q: And the “inhibition of autophosphorylation of BCR-Abl and phosphorylation of its substrates STAT5 and CrkL (immunoblot)” value [18]?
A: capable of inhibiting

Q: And the Clinical chemistries [19, 23]?
A: Within normal range (all dose groups)

Q: And the Weight loss [19, 23]?
A: <5% (all dose groups)

Q: And the “dose-limiting toxicities (DLTs)” value ([19]; CD-1 mice, up to 100 mg/kg BID)?
A: no dose-limiting toxicities (DLTs) were seen; also recorded: no observed DLTs

Q: And the pIC50 [20]?
A: 7.32
